Data on one compound can be found in patent US11857537B2, “Use of prostacyclin antagonists for treating ocular surface nociception” (JENIVISION INC., priority 2016, dated 2024).

The test system of assay [1] is ocular surface nociception induced by corneal scarification in Cynomolgus monkeys. In words: Mild corneal abrasion (scarification) model of ocular discomfort, nictation (blinking) rate. In kind it is in vivo, Cynomolgus monkey. The protocol: A prostanoid IP receptor antagonist (4,5-dihydro-N-[4-[[4-(1-methylethoxy)phenyl]methyl]phenyl]-1H-imadazol-2-amine RO-1138452, CAY 10441), at a dose of 0.3% w/v in an aqueous 1% polysorbate 80 in Tris-HCL (a standard ocular vehicle used in testing of ophthalmic drugs), was administered topically to the ocular surface of […] Cynomolgus monkeys. Cynomologus monkeys are the closest animal model for humans. A model that replicates an actual clinically encountered ocular condition, namely corneal abrasion, was employed.
As an animal model indicative of both ocular discomfort and pain, mild corneal scarification and measurement of the resultant increased blinking (nictation) rate was employed. The species chosen was the Cynomologous monkey and there are reasons for this selection. […] Increased rate of blinking (nictation) is recognized as a reliable end-point indicative of discomfort and pain and was, therefore, used in the studies described herein. There is a linear correlation between ocular surface sensory-evoked stimulation and blink rate in humans (Wu et al., 2014). Increased blinking frequency is associated with a diverse variety of conditions that elicit ocular discomfort and pain such as air borne noxious contaminants (Lang et al., 2008), acidic solutions (Collejo et al, 2015), dry eye conditions and wearing contact lenses (Wu et al., 2014). Thus, increased blinking rate is a universal indicator of ocular surface nociception resulting in discomfort and pain.
The drug formulation was administered post-scarification of the cornea, and at identical time points on two subsequent days. Ocular discomfort was monitored as the nictation (blinking) rate. Blinking is an established human behavioral response to corneal discomfort and irritation (Lang et al., 2008; Wu et al., 2014; Callejo et al., 2015). […]
A total of eight naïve Cynomolgus monkeys were used. […] The nictation rate (blinking rate) was measured to provide quantification of discomfort. […]

The next assay concerns ocular pain. In words: Patient case examples: ocular pain after topical ocular administration. In kind it is in vivo, human. Conditions: Example II: person, extreme ocular discomfort with pain; 0.3% w/v solution, then twice a day. An excerpt:
A person was suffering from extreme ocular discomfort which was associated with pain. […] A person suffers a grade 2 chemical eye burn from an acidic substance. Despite being administered prednisolone acetate 1% every two hours, severe ocular pain persists. The physician will administer Formula 3 from Table I, three times a day. […] After 7-21 days, the patient experiences corneal/conjunctival epithelium and keratocytes proliferate. Collagen synthesis begins. A person suffers from aqueous tear deficient dry eye associated occasionally with moderate to severe sharp ocular pain.

The structures appear in SMILES notation. Entries after “also recorded” stand apart in the source; their conditions may differ.

Regarding `CC(C)Oc1ccc(Cc2ccc(NC3=NCCN3)cc2)cc1` [4,5-dihydro-N-[4-[[4-(1-methylethoxy)phenyl]methyl]phenyl]-1H-imadazol-2-amine], the “nictation rate in drug treated eyes compared with vehicle” value in assay [1] (0.3% w/v topical once daily on Day 4 and Day 5 after corneal scarification on Day 3, n=4 per group, P<0.01 vs vehicle) is given as “statistically significantly lower”. For the same compound, the “ocular surface nociception induced by scarification” value in assay [1] (0.3% w/v topical, P≤0.01 non-paired t-test) is on record as “significantly reduced”. In addition, the “difference in blinking rate, control vs. treated group” value in assay [1] (two days after the surgery (Day 5-16:00)) is on record as “minimal”. Moreover, in the assay with ocular pain, the ocular pain entry was “immediate reduction of ocular pain; also recorded: all pain is reduced and eventually disappears”.
